Laboratory results: US20260285849A1, “METHYLOPHIOPOGONONE A DERIVATIVE, AND PREPARATION AND USE THEREOF” (INSTITUTE OF MATERIA MEDICA, CHINESE ACADEMY OF MEDICAL …, priority 2022, published 2026)
Like-named read-outs stand apart in the source and are kept apart here. Marks after values point to notes of the source that are not given here.

Tests used:
[1] = system: mice with isoproterenol (ISO)-induced ischemic heart disease; assay: ISO-induced ischemic heart disease mouse model: serum ANP and NT-proBNP (ELISA); format: in vivo; conditions: 20 mg/kg intragastric once a day 11 days, ISO 40 mg/kg s.c. 7 times
Procedure: (§1) Male C57BL/6 mice were allowed to acclimate to the environment and then randomly divided into 9 groups, namely the blank control group, the ISO model group, the ISO+diltiazem 20 mg/kg positive control drug group, the ISO+Formula I (0.1, 0.5, 2 mg/kg) groups, and the ISO+Formula II (0.1, 0.5, 2 mg/kg) groups. Mice in the drug administration groups were intragastrically administered the corresponding doses of Formula I and Formula II compounds once a day at the same time. Mice in the positive drug diltiazem group were intragastrically administered the corresponding dose of diltiazem once a day. Mice in the blank control group and the model group were given the same amount of solvent (0.5% CMC-Na). The administration volume was 10 mL/kg, and the administration was continuous for 11 days.
(§2) From the 4th to the 10th day of drug administration, ISO modeling was carried out. The blank control group was subcutaneously injected with normal saline, and mice in the other groups were subcutaneously injected with ISO at a dose of 40 mg/kg (modeling was performed 2 hours after drug administration), for a total of 7 times.
Detection of Myocardial Hypertrophy/Heart Failure Biomarkers: After the drug administration ended, the animals' eyes were enucleated to collect blood. The blood was left to stand at room temperature for 2 hours, and then centrifuged at 3500 rpm for 20 minutes to separate the serum. The contents of serum ANP and NT-proBNP were determined according to the instructions of the ELISA kit.

Rat H9C2 cardiomyocytes [2] = conditions: for OD: 10 μM, 50 μM Ang II 24 h, MTT 570 nm
Procedure: (§3) Rat H9C2 cardiomyocytes in the logarithmic growth phase were seeded at a density of 7×10^4 cells/mL into 96-well plates, with 100 μL per well. […] After 24 hours of culture, the drug treatment groups were respectively added with 50 μM Ang II and the corresponding concentration of the drug. The Ang II model group was added with 50 μM Ang II and an equal volume of DMSO, and the blank control group was added with an equal volume of DMSO. Then, the cells were cultured for another 24 hours. After removing the supernatant, 100 μL of MTT solution (0.5 mg/mL) was added to each well, and the plates were placed in an incubator for 4 hours. After removing the supernatant again, 150 μL of DMSO was added to each well, and the mixture was shaken and mixed evenly for 10 minutes. The absorbance was measured at 570 nm using a microplate reader to calculate the cell viability.
(§4) Cell viability (%)=[(As−Ab)/(Ac−Ab)]×100% • As: Experimental well (culture medium containing cells, MTT, Ang II); • Ac: Control well (culture medium containing cells, MTT, without Ang II); • Ab: Blank well (culture medium without cells, MTT, without Ang II).

Rat H9C2 cardiomyocytes [3] = conditions: for OD: 800 μM ISO 24 h, MTT 570 nm; for Cell survival rate: rat, h9c2 cells, 24 h
Procedure: (§5) Rat H9C2 cardiomyocytes in the logarithmic growth phase were seeded into 96-well plates at a density of 7×10^4 cells/mL, with 100 μL per well. […] After 24 hours of culture, the drug groups were treated with 800 μM ISO and the corresponding concentrations of drugs. The ISO model group received 800 μM ISO and an equal volume of DMSO, and the blank control group received an equal volume of DMSO. The cells were then cultured for another 24 hours. After removing the supernatant, 100 μL MTT solution (0.5 mg/mL) was added to each well and incubated in the cell culture incubator for 4 hours. After removing the supernatant, 150 μL DMSO was added to each well, mixed by shaking for 10 minutes, and the absorbance was measured at 570 nm using a microplate reader to calculate cell viability. Cell viability (%)=[(As−Ab)/(Ac−Ab)]×100%. As: Experimental well (medium with cells, MTT, ISO); Ac: Control well (medium with cells, MTT, without ISO); Ab: Blank well (medium without cells, MTT, without ISO).

[4] = system: mice with isoproterenol (ISO)-induced ischemic heart disease; assay: ISO-induced ischemic heart disease mouse model: Ca2+ in myocardial tissue; format: in vivo; conditions: 20 mg/kg intragastric once a day 11 days
Procedure: as §1, §2
Calcium ion detection in myocardial tissue: After the experiment ended, some myocardial tissue was taken to prepare a 10% myocardial tissue homogenate with ultrapure water. The homogenate was centrifuged at 1200 rpm for 20 minutes at 4° C. to separate the supernatant of the myocardial tissue homogenate. The calcium ion content was determined according to the kit instructions; protein quantification was performed using the BCA protein assay method.

H9C2 cardiomyocytes [5] = assay: Angiotensin II (Ang II)-induced cardiomyocyte hypertrophy model, crystal violet, cell surface area; format: cell-based, rat; conditions: 10 μM; 40 μM Ang II 24 h; mean of 5 views
Procedure: Adjust the H9C2 cardiomyocytes in the logarithmic growth phase to a density of 1.2×10^5 cells/well and inoculate them into six-well plates. […] After culturing for 24 hours, the drug administration groups are added with 40 μM Ang II and the corresponding concentrations of drugs. The Ang II+diltiazem 10 μM group is added with 40 μM Ang II and 10 μM diltiazem. The Ang II model group is added with 40 μM Ang II and an equal volume of DMSO. The blank control group is added with an equal volume of DMSO. Then, continue culturing for 24 hours. Discard the culture medium, wash the cells 3 times with PBS. Add 1 mL of methanol to each well and fix the cells at −20° C. for 20 minutes, and then let them return to room temperature. After discarding the methanol, add 1 mL of 0.5% crystal violet staining solution to each well and stain for 10 minutes. Wash the cells with clean water and take pictures under an inverted microscope. Randomly select fields of view for photographing. Use Image J software to measure the sum of the surface areas of all cardiomyocytes in the field of view and count the number of cells in the field of view at the same time to obtain the surface area of each cardiomyocyte. The surface area of a single cardiomyocyte=the sum of the surface areas of all cardiomyocytes in the field of view/the number of cardiomyocytes in the field of view.

H9C2 cardiomyocytes [6] = assay: cells; conditions: Rattus norvegicus, H9c2, read-out: Cell viability
Procedure: (§6) H9C2 cardiomyocytes in the logarithmic growth phase were seeded into 96-well plates at a density of 7×10^4 cells/mL, with 100 μL per well.
(§7) After 24 hours of culture, the culture medium of the H/R and drug-treated groups was replaced with serum-free glucose-free DMEM medium (100 μL per well). The cells were then placed in an anaerobic incubator and cultured under hypoxic conditions in a 37° C. cell culture incubator. After 6 hours, the supernatant of the H/R and drug-treated groups was removed and replaced with high-glucose medium containing 10% fetal bovine serum (100 μL per well). Each drug-treated group received the corresponding concentration of the drug, while the H/R model group and the blank control group received an equal volume of DMSO.
(§8) After removing the supernatant, 100 μL of CCK solution (the volume of CCK accounted for 10% of the DMEM culture medium volume) was added to each well. The cells were cultured in the cell culture incubator for 1 hour, and the absorbance was measured at 450 nm using a microplate reader to calculate the cell viability. Cell viability was calculated as follows: Cell viability (%)=(Experimental well-Blank well)/(Control well-Blank well)×100%.

Rat H9C2 cardiomyocytes [7] = assay: cells; conditions: H9c2, 24 h, read-out: Cell viability
Procedure: as §3, §4

Rat H9C2 cardiomyocytes [8] = assay: cells; conditions: H9c2, 24 h, read-out: Cell survival rate
Procedure: as §5

H9C2 cardiomyocytes [9] = conditions: for OD: 6 h hypoxia, 12 h reoxygenation, CCK 450 nm; for Cell viability: rat, h9c2 cells
Procedure: as §6, §7, §8

[10] = system: mice with isoproterenol (ISO)-induced ischemic heart disease; assay: ISO-induced ischemic heart disease mouse model: serum CK-MB (ELISA); format: in vivo; conditions: 20 mg/kg intragastric once a day 11 days
Procedure: as §1, §2
Myocardial enzyme CK-MB detection: After the administration ended, blood was collected from the animals by enucleation. The blood was left to stand at room temperature for 2 hours, and then centrifuged at 3500 rpm for 20 minutes to separate the serum. The content of CK-MB in the serum was determined according to the instructions of the ELISA kit.

[11] = system: mice with isoproterenol (ISO)-induced ischemic heart disease; assay: ISO-induced ischemic heart disease mouse model: myocardial tissue pathology (H&E); format: in vivo; conditions: 20 mg/kg, H&E
Procedure: as §1, §2
Pathological detection of myocardial tissue: After the experiment ended, the heart was washed with ice-cold physiological saline and dried with absorbent paper. It was then cut transversely into two halves. One-third of the part closer to the apex of the heart was fixed in a 4% paraformaldehyde solution. After dehydration with gradient ethanol and clearing with xylene, it was immersed in melted paraffin three times for embedding, 30 minutes each time. After embedding, continuous sections (about 4 μm thick) were made. Routine hematoxylin and eosin (H.E.) staining was performed. The pathological state of the myocardial tissue was observed under an optical microscope, photographed, and analyzed.
• −: No abnormalities were observed. • +: No myocardial tissue damage was seen. There was local hypertrophy of cardiomyocytes in the interventricular septum and papillary muscles, local edema and degeneration of cardiomyocytes, widening of the local muscle space in the lesion area, and mild non-specific inflammation in the interstitium. • ++: No obvious myocardial tissue damage (cardiomyocyte necrosis) was observed. There was local hypertrophy of cardiomyocytes in the interventricular septum and papillary muscles, local edema and degeneration of cardiomyocytes. Myofibril dissolution (disappearance of cross-striations) could be seen in local areas. The lesions were relatively limited and distributed in small foci. Non-specific inflammation was visible in the interstitium, and local fibrous tissue hyperplasia in the interstitium was noted. • +++: There was obvious hypertrophy of cardiomyocytes in the interventricular septum and papillary muscles, local edema and degeneration of cardiomyocytes. […] The lesion was limited to the subendocardium of the local interventricular septum (or papillary muscle), with a limited and small affected area. Non-specific inflammation was visible in the interstitium of the lesion area, and local fibrous tissue hyperplasia in the interstitium was noted. • ++++: The hypertrophy of cardiomyocytes in the interventricular septum and papillary muscles is remarkable. Locally, there is edema and degeneration of cardiomyocytes; there is obvious damage (necrosis of cardiomyocytes) in the myocardial tissue of the local interventricular septum and papillary muscles. The lesions are distributed in foci (or small patches), and the affected area is relatively large. […] Locally, there is edema and degeneration of cardiomyocytes; the damage (necrosis of cardiomyocytes) of the myocardial tissue of the local interventricular septum and papillary muscles is severe. The damage (necrosis) lesions are distributed in patches and are connected to each other. Transmural myocardial tissue damage of the interventricular septum and papillary muscles can be seen locally.

`COc1ccc([C@@H]2Sc3ccccc3N(CCN(C)C)C(=O)[C@@H]2OC(C)=O)cc1` [Diltiazem, reference compound] was tested, and the ANP [1] was 361.59 ± 46.95^ pg/mL, the NT-proBNP [1] was 43.12 ± 2.93 pg/mL and the OD (Rat H9C2 cardiomyocytes [2]) was 0.857 ± 0.042. The OD (Rat H9C2 cardiomyocytes [3]; 10 μM) was 0.773 ± 0.029, the “Ca^2+” value [4] was 0.057 ± 0.011 mmol/gprot and the Myocardial surface area (H9C2 cardiomyocytes [5]) was 392.02 ± 19.37^### μm^2. For the same compound, the viability at 10 µM (H9C2 cardiomyocytes [6]) was 50.2%, the viability at 10 µM (Rat H9C2 cardiomyocytes [7]) was 79.7% and the viability at 10 µM (Rat H9C2 cardiomyocytes [8]) was 63.9%. The OD (H9C2 cardiomyocytes [9]; 10 μM) was 0.522 ± 0.061, the CK-MB [10] was 17.98 ± 2.88 ng/mL and the “The number of animals with lesion degree +” value [11] was 3. For the same compound, the “The number of animals with lesion degree ++” value [11] was 1, the “The number of animals with lesion degree +++” value [11] was 4 and the “The number of animals with lesion degree ++++” value [11] was 0. For the same compound, the “The number of animals with lesion degree +++++” value [11] was 0, the “The number of animals with lesion degree −” value [11] was 2 and the “average score of myocardial tissue lesion degree” value [11] was 1.70 ± 1.25.
`Cc1c(O)cc2occ(Cc3ccc4c(c3)OCO4)c(=O)c2c1O` [Formula III] showed an OD (Rat H9C2 cardiomyocytes [3]; 1 μM) of 0.815 ± 0.041, an OD (Rat H9C2 cardiomyocytes [3]; 5 μM) of 0.792 ± 0.061 and an OD (Rat H9C2 cardiomyocytes [3]; 10 μM) of 0.750 ± 0.065. It also gave a viability at 0.1 µM (H9C2 cardiomyocytes [6]) of 53.1%, a viability at 0.3 µM (H9C2 cardiomyocytes [6]) of 48.1% and a viability at 1 µM (H9C2 cardiomyocytes [6]) of 53.4%. The viability at 3 µM (H9C2 cardiomyocytes [6]) was 55.8%, the viability at 5 µM (H9C2 cardiomyocytes [6]) was 52.2% and the viability at 10 µM (H9C2 cardiomyocytes [6]) was 50.6%. It also gave a viability at 1 µM (Rat H9C2 cardiomyocytes [8]) of 67.4%, a viability at 5 µM (Rat H9C2 cardiomyocytes [8]) of 65.5% and a viability at 10 µM (Rat H9C2 cardiomyocytes [8]) of 62.1%. For the same compound, the OD (H9C2 cardiomyocytes [9]; 0.1 μM) was 0.552 ± 0.067, the OD (H9C2 cardiomyocytes [9]; 0.3 μM) was 0.500 ± 0.062 and the OD (H9C2 cardiomyocytes [9]; 1 μM) was 0.555 ± 0.053. For the same compound, the OD (H9C2 cardiomyocytes [9]; 3 μM) was 0.580 ± 0.069, the OD (H9C2 cardiomyocytes [9]; 5 μM) was 0.543 ± 0.037 and the OD (H9C2 cardiomyocytes [9]; 10 μM) was 0.527 ± 0.047.
`Cc1c(O)c(C)c2occ(Cc3ccc4c(c3)OCO4)c(=O)c2c1O` [methyl ophiopogonone A, reference compound] showed an OD (Rat H9C2 cardiomyocytes [2]) of 0.833 ± 0.041, a Cell viability (Rat H9C2 cardiomyocytes [2]; rat, h9c2 cells, 24 h, 10 µM) of 77.40% and an OD (Rat H9C2 cardiomyocytes [3]; 1 μM) of 0.781 ± 0.029. For the same compound, the OD (Rat H9C2 cardiomyocytes [3]; 5 μM) was 0.801 ± 0.045, the OD (Rat H9C2 cardiomyocytes [3]; 10 μM) was 0.724 ± 0.024^(p = 0.09) and the Cell survival rate (Rat H9C2 cardiomyocytes [3]; 1 µM) was 64.63%. The Cell survival rate (Rat H9C2 cardiomyocytes [3]; 5 µM) was 66.28%, the Cell survival rate (Rat H9C2 cardiomyocytes [3]; 10 µM) was 59.89% and the OD (H9C2 cardiomyocytes [9]; 1 μM) was 0.540 ± 0.034. For the same compound, the OD (H9C2 cardiomyocytes [9]; 5 μM) was 0.501 ± 0.042, the OD (H9C2 cardiomyocytes [9]; 10 μM) was 0.581 ± 0.054 and the Cell viability (H9C2 cardiomyocytes [9]; 1 µM) was 51.93%. The Cell viability (H9C2 cardiomyocytes [9]; 5 µM) was 48.17% and the Cell viability (H9C2 cardiomyocytes [9]; 10 µM) was 55.82%.
